Results as given in publication PMC10383271.

What was measured:
[1] = molecular target: human serum albumin (HSA) (Homo sapiens, UniProt P02768); assay: Circular dichroism spectroscopy of HSA, secondary structure; design: purchased Sigma-Aldrich Chemie GmbH; conditions: for Change in % α-helix, (1:5) minus (1:0) / reduction in the percentage of α-helix: HSA
Method: When the small molecules interact with plasma proteins, changes in circular dichroism spectra are observed. Specific secondary structures such as α-helix or β-sheet have a characteristic band on the spectrum. For the first structure, two negative peaks near 209 and 220 nm are observed, while for the β-sheet, the negative band around 215 nm is present.
Circular dichroism (CD) spectra were measured on the Jasco J-1500 magnetic circular dichroism spectrometer (JASCO International CO., Tokyo, Japan) at room temperature with a 10 mm path length. […] The spectra were measured in the range of 205–250 nm at a scan rate speed of 50 nm/min, with a response time of 1 s. […] They were respectively added into 3 mL of protein solution successive portions of the solutions of the analyzed compounds. The analysis of the obtained results was performed using the CD Multivariate Calibration Creation and CD Multivariate SSE programs (JASCO International CO., Tokyo, Japan). Protein concentrations were converted here for mean residue molar concentrations.

[2] = system: normal human dermal fibroblasts (NHDF); assay: MTT assay, viability of NHDF cell culture (ISO 10993 part 5); type: cell-based; conditions: NHDF cell cultures, 24 h incubation; for IC50: Homo sapiens, MTT, mean (± SD), n = 5
Method: The viability of the normal human dermal fibroblasts (NHDF) cell culture after 24 h incubation with the tested compounds 5a-c-7a-c was assessed by carrying out the MTT assay. This test was performed according to ISO 10993 part 5, Appendix C. For all tested compounds, the IC50 values were calculated using four-parameter logistics. Normal human dermal fibroblasts (NHDF) were purchased from the American Type Culture Collection (ATCC) for cytotoxicity evaluation of the tested compounds. The cells were grown in Dulbecco's Modified Eagle Medium DMEM with […] glucose without phenol red supplemented with 10% FBS and 2 mM L-glutamine, and 25 μg/mL gentamicin. The NHDF cells were cultured under standard conditions (5% CO2, 37 °C, and 95% humidity) with evaluation morphology and confluence at least twice a week. For the assay, the cells were used only in a logarithmic growth phase, and the TrypLE solution was used for 2 min at 37 °C to detach cells. Then, the TrypLE solution was inactivated by adding a culture medium, and the suspension of cells was collected into a tube and centrifuged for 5 min at 1000 rpm. Then, the supernatant was removed, fresh medium was added, and the pellet was resuspended and calculated using the […] chamber. The suspension of cells was prepared to allow seeding 10,000 cells/well density and incubated for 24 h to regenerate in CO2-incubator. The tested compounds were dissolved in DMSO to a final concentration of 10 mM and stored at -20 °C. Before use, the compound solution was kept at room temperature until thawing, and then, samples with 3 different concentrations of compounds were prepared (100 μM, 50 μM, and 10 μM) for each compound. The tested concentrations of compounds were prepared in a culture medium. […] The evaluation of the cytotoxicity of the newly synthesized compounds was carried out in accordance with the ISO 10,993 part V standard by performing the MTT test. After seeding at a density of 10,000 cells per well and adhering overnight, the NHDF cells were treated with the test compounds for 24 h in a CO2 incubator. The supernatant was then removed, the cells were washed with PBS, a 1mg/mL solution of MTT dissolved in MEM was added, and the cultures were re-incubated for 2 h in a CO2 incubator. The medium was then removed, and for a further 30 min, the formazan crystals were dissolved in 100 μL of isopropanol. The absorbance was measured with a Varioskan Go microplate reader at a wavelength of 570 nm. […] For enzyme assays, the IC50 was calculated according to the procedure provided by the kit manufacturer. The significance was set at p < 0.05. Based on the tests performed, the test power was calculated to be greater than 80%.

[3] = system: alpha-1-acid glycoprotein (AAG); assay: Binding site study with AAG, replacement of marker quinaldine red (fluorescence); design: species or system human
From the text: Orosomucoid has seven binding sites in its molecule, but there is only one site where the drugs bind. A very good fluorescent marker for binding site study in the case of AAG is quinalidine red (QR).
We used a 500 nm excitation wavelength. In these conditions, the maximum emission spectra were located near 600 nm. We increased the molar ratio of the reactants from 1:1:0 to 1:1:10. The intensity of fluorescence decreases during the addition of successive portions of the analyzed compounds.
Binding site studies were conducted using fluorescence measurements. Spectra were recorded on Cary Eclipse 500 spectrophotometer (Agilent, Santa Clara, CA, USA) at room temperature with a 10 mm path length. HSA and AAG solutions were prepared in phosphate buffer, giving concentrations equal to 1 × 10^−6 M. The concentrations of dansylated-L-glycine (DanG), dansylated-L-phenylalanine (DanF), and quinaldine red (QR) were 1 × 10^−3 M. The densylated amino acids and QR solutions were prepared in ethanol. For the HSA-dansylated amino acids studies, the excitation wavelength was equal to 350 nm, while for the AAG-QR system, it was 500 nm, respectively. Then, 3 mL of protein was mixed with 3 µL of marker solution, giving a molar ratio of 1 to 1. Next, successive portions of the analyzed compounds were added to the mixtures prepared in this way, obtaining the appropriate protein-to-compound molar ratios, amounting to 1:0, 1:0.5, 1:1, 1:2, 1:3, 1:4, 1:5, and 1:10 for the HSA-densylated amino acids systems, and 1:0, 1:0.5, 1:1, 1:2, 1:3, 1:4, 1:6, 1:8, and 1:10 for the AAG-QR systems.

[4] = system: alpha-1-acid glycoprotein (AAG); assay: Fluorescence quenching titration of AAG
Method: Aex is the absorbance at excitation wavelengths, and Aem is the absorbance at emission wavelengths.
The correlation between the stability constant of complexes Kb and standard thermodynamic parameters enthalpy change (ΔH°), and entropy change (ΔS°) was determined by the van’t Hoff Equation (4):(4) logKb=−∆H^°/RT+∆S^°/R where R is the universal gas constant; the free energy change (ΔG°) can be calculated by following Equation (5):(5) ∆G^°=∆H^°−T∆S^°=−RTlnKb
The fluorescence study was performed on a Cary Eclipse 500 spectrophotometer (Agilent, Santa Clara, CA, USA). The spectra were recorded in a cuvette with 10 mm path length at an emission range of 300–500 nm, and the excitation wavelength was 280 nm.

[5] = AAG:marker:compound molar ratio 1:1:0.5
[6] = AAG:marker:compound molar ratio 1:1:1
[7] = AAG:marker:compound molar ratio 1:1:2
[8] = AAG:marker:compound molar ratio 1:1:3
[9] = AAG:marker:compound molar ratio 1:1:4
[10] = AAG:marker:compound molar ratio 1:1:6
[11] = AAG:marker:compound molar ratio 1:1:8
[12] = AAG:marker:compound molar ratio 1:1:10

Sequence of human serum albumin (HSA) (P02768 25-609): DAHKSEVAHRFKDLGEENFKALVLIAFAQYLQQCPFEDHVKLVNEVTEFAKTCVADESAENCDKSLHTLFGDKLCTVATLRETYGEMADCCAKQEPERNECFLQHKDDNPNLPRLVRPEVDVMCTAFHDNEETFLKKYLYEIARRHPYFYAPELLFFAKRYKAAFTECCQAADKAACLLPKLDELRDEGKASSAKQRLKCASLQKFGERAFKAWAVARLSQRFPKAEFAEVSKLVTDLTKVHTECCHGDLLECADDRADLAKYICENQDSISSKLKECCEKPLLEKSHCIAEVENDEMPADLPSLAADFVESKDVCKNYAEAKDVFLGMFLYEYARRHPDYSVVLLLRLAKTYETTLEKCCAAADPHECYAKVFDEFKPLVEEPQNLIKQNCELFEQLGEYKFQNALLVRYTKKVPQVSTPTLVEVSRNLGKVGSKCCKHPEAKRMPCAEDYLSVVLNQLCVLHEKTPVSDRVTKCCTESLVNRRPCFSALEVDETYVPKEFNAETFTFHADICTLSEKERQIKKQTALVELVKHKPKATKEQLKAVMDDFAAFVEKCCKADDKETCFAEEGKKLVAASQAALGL

## Cc1c2c(OCC(=O)N/N=C/c3ccccc3)nn(C)c(=O)c2c(C)n1-c1ccccc1 [Compound 5b, N-[(Z/E)-benzylideneamino]-2-(3,5,7-trimethyl-4-oxo-6-phenyl-pyrrolo[3,4-d]pyridazin-1-yl)oxy-acetamide]
[1]
  Change in % α-helix, (1:5) minus (1:0): −2.4%
  reduction in the percentage of α-helix: 2.4%
[1]; HSA:compound molar ratio 1:0.5
  % Other: 20.9%
  % α-Helix: 67.7%
  % β-Sheet: 2.2%
  % β-Turn: 9.3%
[1]; HSA:compound molar ratio 1:1
  % Other: 21.0%
  % α-Helix: 67.1%
  % β-Sheet: 2.5%
  % β-Turn: 9.3%
[1]; HSA:compound molar ratio 1:2
  % Other: 20.6%
  % α-Helix: 66.9%
  % β-Sheet: 3.2%
  % β-Turn: 9.3%
[1]; HSA:compound molar ratio 1:3
  % Other: 20.5%
  % α-Helix: 66.6%
  % β-Sheet: 3.7%
  % β-Turn: 9.3%
[1]; HSA:compound molar ratio 1:5
  % Other: 20.2%
  % α-Helix: 66.3%
  % β-Sheet: 4.3%
  % β-Turn: 9.2%
[2]
  IC50: 486 ± 6.5 µM
  Cell Morphology in Culture: Normal morphology of fibroblasts-elongated cells, single granular cells in 1 of 10 assessed fields of view.
[3]; [5]
  percentage of the replacement of QR: 17.2%
[3]; [6]
  percentage of the replacement of QR: 29.1%
[3]; [7]
  percentage of the replacement of QR: 40.3%
[3]; [8]
  percentage of the replacement of QR: 47.0%
[3]; [9]
  percentage of the replacement of QR: 52.2%
[3]; [10]
  percentage of the replacement of QR: 55.2%
[3]; [11]
  percentage of the replacement of QR: 56.7%
[3]; [12]
  percentage of the replacement of QR: 58.2%
[4]; T 297 K
  Ksv: 10.41 ± 1.08 ·10^4 dm^3·mol^−1
  kq: 10.41 ·10^12 dm^3·mol^−1·s^−1
  logKb: 2.71 ± 0.21
[4]; T 303 K
  Ksv: 11.41 ± 1.42 ·10^4 dm^3·mol^−1
  kq: 11.41 ·10^12 dm^3·mol^−1·s^−1
  logKb: 2.53 ± 0.15
[4]; T 308 K
  Ksv: 8.39 ± 1.24 ·10^4 dm^3·mol^−1
  kq: 8.39 ·10^12 dm^3·mol^−1·s^−1
  logKb: 2.35 ± 0.12

## Cc1c2c(OCC(=O)N/N=C/c3ccccc3)nn(C)c(=O)c2c(C)n1-c1cccc(Cl)c1 [Compound 5c, N-[(Z/E)-benzylideneamino]-2-[6-(3-chlorophenyl)-3,5,7-trimethyl-4-oxo-pyrrolo[3,4-d]pyridazin-1-yl]oxyacetamide]
[1]
  Change in % α-helix, (1:5) minus (1:0): −1.6%
  reduction in the percentage of α-helix: 1.6%
[1]; HSA:compound molar ratio 1:0.5
  % Other: 19.6%
  % α-Helix: 68.4%
  % β-Sheet: 2.9%
  % β-Turn: 9.1%
[1]; HSA:compound molar ratio 1:1
  % Other: 20.3%
  % α-Helix: 68.0%
  % β-Sheet: 2.5%
  % β-Turn: 9.2%
[1]; HSA:compound molar ratio 1:2
  % Other: 19.8%
  % α-Helix: 67.8%
  % β-Sheet: 3.2%
  % β-Turn: 9.2%
[1]; HSA:compound molar ratio 1:3
  % Other: 19.7%
  % α-Helix: 67.8%
  % β-Sheet: 3.3%
  % β-Turn: 9.1%
[1]; HSA:compound molar ratio 1:5
  % Other: 20.0%
  % α-Helix: 67.3%
  % β-Sheet: 3.5%
  % β-Turn: 9.2%
[2]
  IC50: 95.2 ± 1.5 µM
  Cell Morphology in Culture: Cells with an elongated shape characteristic of fibroblasts, the granularities were observed in 3–5 fields of view from 10 analyzed fields.
[3]; [5]
  percentage of the replacement of QR: 31.7%
[3]; [6]
  percentage of the replacement of QR: 39.7%
[3]; [7]
  percentage of the replacement of QR: 52.4%
[3]; [8]
  percentage of the replacement of QR: 54.0%
[3]; [9]
  percentage of the replacement of QR: 54.8%
[3]; [10]
  percentage of the replacement of QR: 55.6%
[3]; [11]
  percentage of the replacement of QR: 55.6%
[3]; [12]
  percentage of the replacement of QR: 55.6%
[4]; T 297 K
  Ksv: 15.87± 2.41 ·10^4 dm^3·mol^−1
  kq: 15.87 ·10^12 dm^3·mol^−1·s^−1
  logKb: 2.64 ± 0.16
[4]; T 303 K
  Ksv: 14.60 ± 2.05 ·10^4 dm^3·mol^−1
  kq: 14.60 ·10^12 dm^3·mol^−1·s^−1
  logKb: 2.47 ± 0.17
[4]; T 308 K
  Ksv: 9.99 ± 1.60 ·10^4 dm^3·mol^−1
  kq: 9.99 ·10^12 dm^3·mol^−1·s^−1
  logKb: 2.31 ± 0.20

## CCCCn1c(C)c2c(OCC(=O)N/N=C/c3ccccc3)nn(C)c(=O)c2c1C [Compound 5a, N-[(Z/E)-benzylideneamino]-2-(6-butyl-3,5,7-trimethyl-4-oxo-pyrrolo[3,4-d]pyridazin-1-yl)oxy-acetamide]
[1]
  Change in % α-helix, (1:5) minus (1:0): −2.0%
[1]; HSA:compound molar ratio 1:0.5
  % Other: 20.7%
  % α-Helix: 67.3%
  % β-Sheet: 2.8%
  % β-Turn: 9.2%
[1]; HSA:compound molar ratio 1:1
  % Other: 20.9%
  % α-Helix: 66.9%
  % β-Sheet: 2.8%
  % β-Turn: 9.3%
[1]; HSA:compound molar ratio 1:2
  % Other: 21.5%
  % α-Helix: 66.3%
  % β-Sheet: 2.7%
  % β-Turn: 9.4%
[1]; HSA:compound molar ratio 1:3
  % Other: 21.6%
  % α-Helix: 66.2%
  % β-Sheet: 2.8%
  % β-Turn: 9.5%
[1]; HSA:compound molar ratio 1:5
  % Other: 20.3%
  % α-Helix: 66.1%
  % β-Sheet: 4.3%
  % β-Turn: 9.3%
[2]
  IC50: 85.6 ± 2.5 µM
  Cell Morphology in Culture: Cells with an elongated shape characteristic of fibroblasts, the granularities were observed in 3–5 fields of view from 10 analyzed fields.
[3]; [5]
  percentage of the replacement of QR: 23.7%
[3]; [6]
  percentage of the replacement of QR: 35.5%
[3]; [7]
  percentage of the replacement of QR: 48.1%
[3]; [8]
  percentage of the replacement of QR: 55.0%
[3]; [9]
  percentage of the replacement of QR: 58.8%
[3]; [10]
  percentage of the replacement of QR: 65.6%
[3]; [11]
  percentage of the replacement of QR: 69.5%
[3]; [12]
  percentage of the replacement of QR: 72.5%
[4]; T 297 K
  Ksv: 9.04 ± 0.16 ·10^4 dm^3·mol^−1
  kq: 9.04 ·10^12 dm^3·mol^−1·s^−1
  logKb: 1.82 ± 0.12
[4]; T 303 K
  Ksv: 3.15 ± 0.41 ·10^4 dm^3·mol^−1
  kq: 3.15 ·10^12 dm^3·mol^−1·s^−1
  logKb: 1.73 ± 0.27
[4]; T 308 K
  Ksv: 1.11 ± 0.16 ·10^4 dm^3·mol^−1
  kq: 1.11 ·10^12 dm^3·mol^−1·s^−1
  logKb: 1.62 ± 0.26
